Values joined by “and” are separate entries in the source; they are usually repeats but may differ in a detail not shown here. Identical values can stand only once.
Tests used:
SfurOBP3 = SfurOBP3 (Sogatella furcifera, UniProt V5T818); test: biochemical; assay type: binding; conditions: for Fluorescence competitive binding assay, fluorescence intensity: OBP3, three replicate columns
Method in brief: (§1)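 In 50 mM Tris-HCl pH 7.4, odorants displace 1-NPN (2.0 µM) from 2.0 µM protein. Emission at 390–490 nm under 337 nm excitation is measured 2 min after competitor addition, in triplicate. Ki is obtained from IC50 and the 1-NPN dissociation constant.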

SfurOBP11 = SfurOBP11 (Sogatella furcifera, UniProt V5T6E3); test: biochemical; assay type: binding
Method in brief: as §1

SfurOBP1 = SfurOBP1 (Sogatella furcifera, UniProt V5T8N5); test: biochemical; assay type: binding; conditions: for Fluorescence competitive binding assay, fluorescence intensity: OBP1, three replicate columns
Method in brief: as §1

SfurOBP2 = SfurOBP2 (Sogatella furcifera, UniProt V5T759); test: biochemical; assay type: binding
Method in brief: as §1

S. furcifera adults = test: Y-tube olfactometer behavioral trials; assay type: in vivo, Sogatella furcifera; conditions: odorant 50 µL/L vs hexane; adults
Method in brief: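 Single S. furcifera adults (2 days post-emergence, starved 0.5 h) chose between odorant (100 µL of 50 µL/L on filter paper) and hexane control in a glass Y-tube, charcoal-filtered humidified air 300 mL/min per arm, 25 ± 1 °C, 50% RH. Choice scored if insect passed half an arm and stayed >1 min within 10 min; 45 insects per compound, chi-squared test.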

SfurOBP2, sequence (V5T759 entry or part of it): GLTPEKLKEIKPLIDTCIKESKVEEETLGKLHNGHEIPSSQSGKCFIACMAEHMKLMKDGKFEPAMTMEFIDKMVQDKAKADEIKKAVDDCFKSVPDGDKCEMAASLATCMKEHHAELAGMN
SfurOBP3, sequence (V5T818 entry or part of it): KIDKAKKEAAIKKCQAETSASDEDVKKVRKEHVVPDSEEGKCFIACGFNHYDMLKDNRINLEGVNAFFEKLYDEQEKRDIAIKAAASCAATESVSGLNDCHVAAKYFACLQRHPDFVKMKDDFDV
SfurOBP11, sequence (V5T6E3 entry or part of it): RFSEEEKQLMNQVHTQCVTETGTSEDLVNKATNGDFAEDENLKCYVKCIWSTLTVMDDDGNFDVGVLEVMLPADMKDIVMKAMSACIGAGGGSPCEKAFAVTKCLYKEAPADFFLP
SfurOBP1, sequence (V5T8N5 entry or part of it): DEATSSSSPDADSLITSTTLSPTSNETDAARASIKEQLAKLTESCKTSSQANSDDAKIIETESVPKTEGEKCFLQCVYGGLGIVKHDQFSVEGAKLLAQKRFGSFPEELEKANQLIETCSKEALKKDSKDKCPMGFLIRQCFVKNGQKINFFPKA

Compound: C=CC(C)(O)CCC=C(C)CCC=C(C)C (mixture of isomers) [nerolidol]
- Fluorescence competitive binding assay, fluorescence intensity (SfurOBP3; ligand concentration 2): 55523 and 54254 and 55950
- Fluorescence competitive binding assay, fluorescence intensity (SfurOBP3; ligand concentration 4): 52204 and 49599 and 49733
- Fluorescence competitive binding assay, fluorescence intensity (SfurOBP3; ligand concentration 6): 48530 and 49919 and 47140
- Fluorescence competitive binding assay, fluorescence intensity (SfurOBP3; ligand concentration 8): 48179 and 44521 and 46350
- Fluorescence competitive binding assay, fluorescence intensity (SfurOBP3; ligand concentration 10): 42323 and 44632 and 41414
- Fluorescence competitive binding assay, fluorescence intensity (SfurOBP3; ligand concentration 12): 39705 and 38987 and 37616
- Fluorescence competitive binding assay, fluorescence intensity (SfurOBP3; ligand concentration 14): 34880 and 34317 and 34633
- Fluorescence competitive binding assay, fluorescence intensity (SfurOBP3; ligand concentration 16): 32423 and 30011 and 29519
- Fluorescence competitive binding assay, fluorescence intensity (SfurOBP3; ligand concentration 18): 30169 and 30976 and 30764
- Fluorescence competitive binding assay, fluorescence intensity (SfurOBP3; ligand concentration 20): 29092 and 31304 and 30368
- binding affinity to SfurOBP3 (in words) (SfurOBP3; SfurOBP3): high binding affinities
- IC50 (SfurOBP3; SfurOBP3, protein and 1-NPN both 2.0 µM, competitor 2-20 µM, read-out: IC50): 19 µM
- IC50 (SfurOBP11; SfurOBP11, protein and 1-NPN both 2.0 µM, competitor 2-20 µM, read-out: IC50): > 20 µM
- Fluorescence intensity, fluorescence competitive binding assay, OBP11 (SfurOBP11; ligand concentration 2, replicate 1): 32108
- Fluorescence intensity, fluorescence competitive binding assay, OBP11 (SfurOBP11; ligand concentration 2, replicate 2): 31162
- Fluorescence intensity, fluorescence competitive binding assay, OBP11 (SfurOBP11; ligand concentration 2, replicate 3): 30215
- Fluorescence intensity, fluorescence competitive binding assay, OBP11 (SfurOBP11; ligand concentration 4, replicate 1): 28342
- Fluorescence intensity, fluorescence competitive binding assay, OBP11 (SfurOBP11; ligand concentration 4, replicate 2): 28762
- Fluorescence intensity, fluorescence competitive binding assay, OBP11 (SfurOBP11; ligand concentration 4, replicate 3): 29181
- Fluorescence intensity, fluorescence competitive binding assay, OBP11 (SfurOBP11; ligand concentration 6, replicate 1): 25372
- Fluorescence intensity, fluorescence competitive binding assay, OBP11 (SfurOBP11; ligand concentration 6, replicate 2): 24386
- Fluorescence intensity, fluorescence competitive binding assay, OBP11 (SfurOBP11; ligand concentration 6, replicate 3): 25974
- Fluorescence intensity, fluorescence competitive binding assay, OBP11 (SfurOBP11; ligand concentration 8, replicate 1): 24916
- Fluorescence intensity, fluorescence competitive binding assay, OBP11 (SfurOBP11; ligand concentration 8, replicate 2): 25493
- Fluorescence intensity, fluorescence competitive binding assay, OBP11 (SfurOBP11; ligand concentration 8, replicate 3): 26070
- Fluorescence intensity, fluorescence competitive binding assay, OBP11 (SfurOBP11; ligand concentration 10, replicate 1): 22613
- Fluorescence intensity, fluorescence competitive binding assay, OBP11 (SfurOBP11; ligand concentration 10, replicate 2): 22095
- Fluorescence intensity, fluorescence competitive binding assay, OBP11 (SfurOBP11; ligand concentration 10, replicate 3): 23428
- Fluorescence intensity, fluorescence competitive binding assay, OBP11 (SfurOBP11; ligand concentration 12, replicate 1): 21169
- Fluorescence intensity, fluorescence competitive binding assay, OBP11 (SfurOBP11; ligand concentration 12, replicate 2): 22102
- Fluorescence intensity, fluorescence competitive binding assay, OBP11 (SfurOBP11; ligand concentration 12, replicate 3): 22210
- Fluorescence intensity, fluorescence competitive binding assay, OBP11 (SfurOBP11; ligand concentration 14, replicate 1): 20351
- Fluorescence intensity, fluorescence competitive binding assay, OBP11 (SfurOBP11; ligand concentration 14, replicate 2): 23661
- Fluorescence intensity, fluorescence competitive binding assay, OBP11 (SfurOBP11; ligand concentration 14, replicate 3): 21671
- Fluorescence intensity, fluorescence competitive binding assay, OBP11 (SfurOBP11; ligand concentration 16, replicate 1): 17887
- Fluorescence intensity, fluorescence competitive binding assay, OBP11 (SfurOBP11; ligand concentration 16, replicate 2): 19544
- Fluorescence intensity, fluorescence competitive binding assay, OBP11 (SfurOBP11; ligand concentration 16, replicate 3): 17889
- Fluorescence intensity, fluorescence competitive binding assay, OBP11 (SfurOBP11; ligand concentration 18, replicate 1): 23369
- Fluorescence intensity, fluorescence competitive binding assay, OBP11 (SfurOBP11; ligand concentration 18, replicate 2): 23675
- Fluorescence intensity, fluorescence competitive binding assay, OBP11 (SfurOBP11; ligand concentration 18, replicate 3): 24479
- Fluorescence intensity, fluorescence competitive binding assay, OBP11 (SfurOBP11; ligand concentration 20, replicate 1): 22182
- Fluorescence intensity, fluorescence competitive binding assay, OBP11 (SfurOBP11; ligand concentration 20, replicate 2): 24009
- Fluorescence intensity, fluorescence competitive binding assay, OBP11 (SfurOBP11; ligand concentration 20, replicate 3): 23801
- Fluorescence competitive binding assay, fluorescence intensity (SfurOBP1; ligand concentration 2 (μM)): 6708 and 6744 and 6934
- Fluorescence competitive binding assay, fluorescence intensity (SfurOBP1; ligand concentration 4 (μM)): 6359 and 8427 and 6473
- Fluorescence competitive binding assay, fluorescence intensity (SfurOBP1; ligand concentration 6 (μM)): 6867 and 6865 and 7375
- Fluorescence competitive binding assay, fluorescence intensity (SfurOBP1; ligand concentration 8 (μM)): 8143 and 7305 and 8959
- Fluorescence competitive binding assay, fluorescence intensity (SfurOBP1; ligand concentration 10 (μM)): 7362 and 11085 and 8523
- Fluorescence competitive binding assay, fluorescence intensity (SfurOBP1; ligand concentration 12 (μM)): 6544 and 7094 and 6753
- Fluorescence competitive binding assay, fluorescence intensity (SfurOBP1; ligand concentration 14 (μM)): 7135 and 7404 and 8089
- Fluorescence competitive binding assay, fluorescence intensity (SfurOBP1; ligand concentration 16 (μM)): 5378 and 6818 and 6356
- Fluorescence competitive binding assay, fluorescence intensity (SfurOBP1; ligand concentration 18 (μM)): 6689 and 7935 and 7391
- Fluorescence competitive binding assay, fluorescence intensity (SfurOBP1; ligand concentration 20 (μM)): 6918 and 6511 and 6565
- IC50 (SfurOBP1; SfurOBP1, protein and 1-NPN both 2.0 µM, competitor 2-20 µM, read-out: IC50): > 20 µM
- IC50 (SfurOBP2; SfurOBP2, protein and 1-NPN both 2.0 µM, competitor 2-20 µM, read-out: IC50): 18.2 µM
- Fluorescence competitive binding assay, OBP2 (raw fluorescence reading) (SfurOBP2; ligand concentration 2 (unit not given), replicate column 1 of 3): 16746
- Fluorescence competitive binding assay, OBP2 (raw fluorescence reading) (SfurOBP2; ligand concentration 2 (unit not given), replicate column 2 of 3): 14676
- Fluorescence competitive binding assay, OBP2 (raw fluorescence reading) (SfurOBP2; ligand concentration 2 (unit not given), replicate column 3 of 3): 15441
- Fluorescence competitive binding assay, OBP2 (raw fluorescence reading) (SfurOBP2; ligand concentration 4 (unit not given), replicate column 1 of 3): 14875
- Fluorescence competitive binding assay, OBP2 (raw fluorescence reading) (SfurOBP2; ligand concentration 4 (unit not given), replicate column 2 of 3): 15827
- Fluorescence competitive binding assay, OBP2 (raw fluorescence reading) (SfurOBP2; ligand concentration 4 (unit not given), replicate column 3 of 3): 16107
- Fluorescence competitive binding assay, OBP2 (raw fluorescence reading) (SfurOBP2; ligand concentration 6 (unit not given), replicate column 1 of 3): 14243
- Fluorescence competitive binding assay, OBP2 (raw fluorescence reading) (SfurOBP2; ligand concentration 6 (unit not given), replicate column 2 of 3): 15150
- Fluorescence competitive binding assay, OBP2 (raw fluorescence reading) (SfurOBP2; ligand concentration 6 (unit not given), replicate column 3 of 3): 15095
- Fluorescence competitive binding assay, OBP2 (raw fluorescence reading) (SfurOBP2; ligand concentration 8 (unit not given), replicate column 1 of 3): 12994
- Fluorescence competitive binding assay, OBP2 (raw fluorescence reading) (SfurOBP2; ligand concentration 8 (unit not given), replicate column 2 of 3): 13858
- Fluorescence competitive binding assay, OBP2 (raw fluorescence reading) (SfurOBP2; ligand concentration 8 (unit not given), replicate column 3 of 3): 14632
- Fluorescence competitive binding assay, OBP2 (raw fluorescence reading) (SfurOBP2; ligand concentration 10 (unit not given), replicate column 1 of 3): 12524
- Fluorescence competitive binding assay, OBP2 (raw fluorescence reading) (SfurOBP2; ligand concentration 10 (unit not given), replicate column 2 of 3): 13543
- Fluorescence competitive binding assay, OBP2 (raw fluorescence reading) (SfurOBP2; ligand concentration 10 (unit not given), replicate column 3 of 3): 13950
- Fluorescence competitive binding assay, OBP2 (raw fluorescence reading) (SfurOBP2; ligand concentration 12 (unit not given), replicate column 1 of 3): 11798
- Fluorescence competitive binding assay, OBP2 (raw fluorescence reading) (SfurOBP2; ligand concentration 12 (unit not given), replicate column 2 of 3): 13085
- Fluorescence competitive binding assay, OBP2 (raw fluorescence reading) (SfurOBP2; ligand concentration 12 (unit not given), replicate column 3 of 3): 12945
- Fluorescence competitive binding assay, OBP2 (raw fluorescence reading) (SfurOBP2; ligand concentration 14 (unit not given), replicate column 1 of 3): 12191
- Fluorescence competitive binding assay, OBP2 (raw fluorescence reading) (SfurOBP2; ligand concentration 14 (unit not given), replicate column 2 of 3): 12517
- Fluorescence competitive binding assay, OBP2 (raw fluorescence reading) (SfurOBP2; ligand concentration 14 (unit not given), replicate column 3 of 3): 12178
- Fluorescence competitive binding assay, OBP2 (raw fluorescence reading) (SfurOBP2; ligand concentration 16 (unit not given), replicate column 1 of 3): 11027
- Fluorescence competitive binding assay, OBP2 (raw fluorescence reading) (SfurOBP2; ligand concentration 16 (unit not given), replicate column 2 of 3): 11256
- Fluorescence competitive binding assay, OBP2 (raw fluorescence reading) (SfurOBP2; ligand concentration 16 (unit not given), replicate column 3 of 3): 11449
- Fluorescence competitive binding assay, OBP2 (raw fluorescence reading) (SfurOBP2; ligand concentration 18 (unit not given), replicate column 1 of 3): 11299
- Fluorescence competitive binding assay, OBP2 (raw fluorescence reading) (SfurOBP2; ligand concentration 18 (unit not given), replicate column 2 of 3): 11344
- Fluorescence competitive binding assay, OBP2 (raw fluorescence reading) (SfurOBP2; ligand concentration 18 (unit not given), replicate column 3 of 3): 11251
- Fluorescence competitive binding assay, OBP2 (raw fluorescence reading) (SfurOBP2; ligand concentration 20 (unit not given), replicate column 1 of 3): 11544
- Fluorescence competitive binding assay, OBP2 (raw fluorescence reading) (SfurOBP2; ligand concentration 20 (unit not given), replicate column 2 of 3): 11076
- Fluorescence competitive binding assay, OBP2 (raw fluorescence reading) (SfurOBP2; ligand concentration 20 (unit not given), replicate column 3 of 3): 11172
- number of insects choosing hexane arm (S. furcifera adults): 13
- number of insects choosing volatilies arm (S. furcifera adults): 15
- number of insects failed (no choice) (S. furcifera adults): 12

Reference: PMC6409085, “Three odorant-binding proteins are involved in the behavioral response of Sogatella furcifera to rice plant volatiles” (PeerJ, 2019)
